Marks after values point to notes of the source that are not given here.
Tests used:
[1] = test system: carrageenan-induced edema; assay: Anti-inflammatory effect (carrageenan edema method); assay type: in vivo, rats of the Wistar strain; conditions: Rattus norvegicus, percent inhibition of carrageenan-induced edema, oral
Procedure: The percent inhibition against carrageenan-induced edema in rats of the Wistar strain, using the conventional method of C.A. Winter, E.A. Risley, G.W. Nuss [J. Pharmacol., Exp. Therap., 141, 369 (1963)]. Except where otherwise noted, the dose of test compound was 50 mg/kg.

[2] = test system: inflammation induced by anti-rat IgG rabbit serum; assay: Anti-inflammatory effect (reversed passive alusas reaction, Evans blue extraction); assay type: in vivo, rats of the Sprague-Dawley strain; conditions: oral; for inhibition in vivo at 50 mg/kg / inhibition in vivo at 25 mg/kg: 2.5 h, percent inhibition of inflammation relative to control group; for ED50: ID₅₀, Sprague-Dawley rats
Procedure: The test animals were rats of the Sprague-Dawley strain, which had first been fasted for 17 hours. The hair was trimmed from their dorsal portions by means of a hair clipper, and 0.1 ml/site of anti-rat IgG rabbit serum was injected intracutaneously at the trimmed part to induce inflammation. Except in the case of the control animals, to which no anti-inflammatory drug was administered, the test drug was administered orally immediately before inflammation was induced. Except where otherwise noted, the dose of test compound was 50 mg/kg. Two hours after induction of inflammation, a 1% by volume solution of Evans blue in physiological saline was injected intravenously into the tail of each rat in an amount of 1 ml per each animal. 30 minutes after this injection, the rats were sacrificed with carbon dioxide and their skins were peeled off to extract the chromogen of the blue spots. In more detail, the skins were cut into small pieces and extracted with 5 ml of an extraction solvent at room temperature for 2 days. The supernatant obtained by centrifugation was then measured spectrophotometrically at an absorption wavelength of 605 nm. The percent inhibition of inflammation of the group of rats to which the test drug was administered was determined relative to the control group.

[3] = test system: rats of the Wistar strain; assay: Analgesic effect (Randall-Selitto method); assay type: in vivo; conditions: oral; for responders at 50 mg/kg / ED50: Rattus norvegicus; for responders at 50 mg/kg / Analgesic effect (Randall-Selitto): fraction of animals; for Analgesic effect (Randall-Selitto): dose 25 mg/kg (*)
Procedure: These tests were conducted according to the Randall-Selitto method using rats of the Wistar strain [L.O. Randall, J.J. Selitto: Arch. int. Pharmacodyn. 111, 409 (1957)]. Except where otherwise noted, the dose of test compound was 50 mg/kg.

[4] = test system: male mice of the ddy strain; assay: Acute toxicity; assay type: in vivo; conditions: fraction of animals; dose 300 mg/kg oral in 0.5% carboxymethyl cellulose, observed for 7 days
Procedure: The test animals employed were male mice of the ddy strain (age: 5 weeks). […] The dose of test compound was 300 mg/kg.

gastric acid secretions = assay: Anti-ulcer activity: suppression of gastric acid secretions (Shay method); assay type: in vivo, rats; conditions: gastric acid secretion
[5] = test system: carrageenan-induced edema; assay: Anti-inflammatory effect (carrageenan edema method); assay type: in vivo, rats of the Wistar strain; conditions: oral, Wistar rats; for ED50: Rattus norvegicus, ID₅₀
5-lipoxygenase = target: T1, 5-lipoxygenase (Cavia porcellus, UniProt A0A286X958); assay: 5-Lipoxygenase inhibitory activity (5-HITE production by polymorphonuclear leukocyte enzyme fraction); assay type: biochemical, male guinea pigs of the Hartley strain; conditions: inhibition of production of 5-HITE from [14C]-arachidonic acid; 30°C, 30 minutes, pH 7.4; read-out: IC₅₀ (converted)
T1 construct: The supernatant was isolated as an enzyme fraction; from tissue; host or cells: Casein-elicited peritoneal polymorphonuclear leukocytes of male Hartley guinea pigs; sonicated, 10,000 G supernatant
T1 sequence (A0A286X958 1-674): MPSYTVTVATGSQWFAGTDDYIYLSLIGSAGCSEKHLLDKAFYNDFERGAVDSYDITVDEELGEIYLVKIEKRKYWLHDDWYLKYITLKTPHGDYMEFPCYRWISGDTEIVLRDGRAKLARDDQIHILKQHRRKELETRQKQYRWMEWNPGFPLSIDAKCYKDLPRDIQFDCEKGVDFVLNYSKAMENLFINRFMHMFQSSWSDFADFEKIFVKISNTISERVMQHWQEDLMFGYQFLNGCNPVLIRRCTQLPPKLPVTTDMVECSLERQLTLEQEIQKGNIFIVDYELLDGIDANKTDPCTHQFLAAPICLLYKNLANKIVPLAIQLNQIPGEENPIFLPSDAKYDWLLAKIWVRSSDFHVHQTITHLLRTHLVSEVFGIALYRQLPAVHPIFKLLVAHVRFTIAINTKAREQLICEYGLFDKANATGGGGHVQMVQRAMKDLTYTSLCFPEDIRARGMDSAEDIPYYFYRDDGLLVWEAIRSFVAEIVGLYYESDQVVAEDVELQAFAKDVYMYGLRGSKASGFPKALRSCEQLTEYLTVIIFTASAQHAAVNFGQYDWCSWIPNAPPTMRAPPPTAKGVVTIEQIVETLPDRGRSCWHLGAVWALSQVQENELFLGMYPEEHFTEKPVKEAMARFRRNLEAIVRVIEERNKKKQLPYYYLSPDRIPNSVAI
Procedure: The preparation of polymorphonuclear leukocytes was carried out by the method of Sbarra et al [Sbarra A.J. and Karnovsky, M. L.; J. Biol. Chem., 234, 1355 - 1362 (1959)]. Specifically, a 2% w/v aqueous casein solution was administered intraperitoneally to male guinea pigs of the Hartley strain, each weighing about 400 - 500 g. The polymorphonuclear leukocytes were harvested from the peritoneal exudate 14 - 16 hours after the administration. The preparation of enzyme was carried out by the method of Yoshimoto et al [Yoshimoto, T., Furakawa, M., Yamamoto, S., Horie, T. and Watanabe-Kohno, S.; Biochem. Biophys. Commun., 116, 612 - 618 (1983)]. The harvested polymorphonuclear leukocytes were suspended in a 50 mM phosphate buffer solution (pH = 7.4) containing 10% ethylene glycol and 1mM EDTA at a density of 1 x 10⁸ cells/ml. The suspension was subjected to ultrasound twice, each time for 30 seconds at 20 KHz, and was then centrifuged for 10 minutes at 10,000 G. The supernatant was isolated as an enzyme fraction, which was stored at -80°C. The enzyme assay was carried out by a modification of Ochi's method [Ochi, K., Yoshimoto, T., Yamamoto., S., Taniguchi, K. and Miyamoto, T.; J. Biol. Chem., 258, 5754-5758 (1983)]. Specifically, 2 mM CaCℓ₂, 1 mM glutathione, 2 mM ATP (adenosine-5′-triphosphate), 16 µM [¹⁴C]-arachidonic acid (0.16 µCi, dissolved in 5 µl ethanol), the test compound (dissolved in 4 µl DMSO) and the enzyme solution (containing 200 µg of protein) were made up to a final volume of 200 µl in a 50 mM potassium phosphate buffer solution (pH = 7.4). The test compound and the enzyme were preincubated at 30°C for 5 minutes. After the addition of the arachidonic acid, the mixture was incubated at 30°C for 30 minutes. The reaction was stopped by the addition of 50µl of 0.2N citric acid. The reaction mixture was then extracted with ethyl acetate and the extract was concentrated under a stream of nitrogen. The concentrate was subjected to thin layer chromatography and eluted with a 85 : 15 : 0.1 by volume mixture of diethyl ether, petroleum ether and acetic acid. The 5-hydroxyicosatetraenoic acid (5-HITE) fraction of the plate was identified with a radioactive scanner and the radioactivity was measured. The IC₅₀ (µg/ml) was calculated against the inhibitory rate of the production of 5-HITE of a control group, to which a test compound was not administered.

Compound | inhibition in vivo at 50 mg/kg [1] [%] | inhibition in vivo at 50 mg/kg [2] [%] | responders at 50 mg/kg [3] [%] | Toxicity (mouse) [4] | ED50 ([3]; ED₅₀, Wistar rats) [mg/kg] | ED50 [5] [mg/kg] | ED50 [2] [mg/kg] | further results
COc1ccc(-c2cc3[nH]ccn3n2)cc1 [Example 5] | 53.7 | 67.6 | 100 | 0/3 | – | – | – | –
CN/C(=N/CCSCc1nc[nH]c1C)NC#N [Cimetidine, reference compound] | – | – | – | – | – | – | – | Suppression rate (%) (gastric acid secretions; dosage 10 mg/kg i.d.): 62%; Suppression rate (%) (gastric acid secretions; dosage 30 mg/kg i.d.): 58%
CN(C)CCCOc1nn(Cc2ccccc2)c2ccccc12 [Benzydamine, reference compound] | – | – | – | – | > 200 | 193 | – | –
FC(F)(F)c1cccc(-c2cc3[nH]ccn3n2)c1 [Example 2] | 54 | 69.6 | 60 | 0/3 | – | – | – | –
c1csc(-c2cc3[nH]ccn3n2)c1 [Example 20, 6-(2-Thienyl)-1H-imidazo[1,2-b]pyrazole] | 89.3 | 79.6 | 100 | 0/3 | 8 | 17.1 | 7 | Suppression rate (%) (gastric acid secretions; dosage 10 mg/kg i.d.): 84%; Suppression rate (%) (gastric acid secretions; dosage 30 mg/kg i.d.): 93%
CCCCCCCCCc1c(-c2ccccc2)nn2cc[nH]c12 [Example 41] | – | – | – | – | – | – | – | IC50 (5-lipoxygenase): 2.13 µM
c1ccc(-c2cnn3cc[nH]c23)cc1 [Example 29, 7-Phenyl-1H-imidazo[1.2-b]pyrazole] | – | – | – | 0/3 | 5.1 | 20.1 | 14.8 | inhibition in vivo at 25 mg/kg [1]: 63.2%; inhibition in vivo at 25 mg/kg [2]: 72.2%; Analgesic effect (Randall-Selitto) [3]: 5/5*
CC(C)c1c(-c2ccccc2)nn2cc[nH]c12 [Example 11] | – | – | – | – | – | – | – | IC50 (5-lipoxygenase): 8.88 µM
CCc1c(-c2cccs2)nn2cc[nH]c12 [Example 24] | 71.9 | – | – | 0/3 | – | – | – | Analgesic effect (Randall-Selitto) [3]: 4/5*
Cc1c(-c2ccccc2)nn2cc[nH]c12 [Example 4, 7-methyl-6-phenyl-1H-imidazo[1,2-b]pyrazole] | 64.9 | 60.5 | 100 | 0/5 | 2.4 | 34.1 | 26.7 | Suppression rate (%) (gastric acid secretions; dosage 10 mg/kg i.d.): 67%; Suppression rate (%) (gastric acid secretions; dosage 30 mg/kg i.d.): 100%
FC(F)(F)c1ccc(-c2cc3[nH]ccn3n2)cc1 [Example 1, 6-(4-Trifluoromethylphenyl)-1H-imidazo[1,2-b]pyrazole] | 44.2 | – | 80 | 0/3 | – | – | – | –
Cc1nn2cc[nH]c2c1-c1ccccc1 [Example 30, 6-methyl-7-phenyl-1H-imidazo[1,2-b]pyrazole] | – | – | – | 0/3 | 5.9 | 25 | – | inhibition in vivo at 25 mg/kg [1]: 50%; Analgesic effect (Randall-Selitto) [3]: 5/5*; IC50 (5-lipoxygenase): 2.53 µM
Clc1ccc(-c2cc3[nH]ccn3n2)cc1 [Example 8, 6-(p-chlorophenyl)-1H-imidazo[1,2-b]pyrazole] | 76.5 | 74.7 | 100 | 0/3 | – | – | – | –
c1coc(-c2cc3[nH]ccn3n2)c1 [Example 22, 6-(2-Furyl)-1H-imidazo[1,2-b]pyrazole] | 76.3 | – | – | 0/3 | – | – | – | Analgesic effect (Randall-Selitto) [3]: 4/5*
c1ccc(-c2cc3[nH]ccn3n2)cc1 [Example 3, 6-phenyl-1H-imidazo[1,2-b]pyrazole] | 65.1 | 88 | 100 | 0/5 | 6.1 | 36.6 | 13.9 | Suppression rate (%) (gastric acid secretions; dosage 10 mg/kg i.d.): 66%; Suppression rate (%) (gastric acid secretions; dosage 30 mg/kg i.d.): 85%
CCc1c(-c2ccccc2)nn2cc[nH]c12 [Example 10] | 51.3 | 56.3 | 100 | 0/3 | – | – | – | IC50 (5-lipoxygenase): 5.21 µM
Cc1c(-c2cccs2)nn2cc[nH]c12 [Example 21, 7-Methyl-6-(2-thienyl)-1H-imidazo[1,2-b]pyrazole] | 53.4 | – | 100 | 0/3 | 10 | 22.3 | 7.9 | inhibition in vivo at 25 mg/kg [2]: 78.1%
c1csc(-c2cnn3cc[nH]c23)c1 [Example 32, 7-(2-thienyl)-1H-imidazo[1,2-b]pyrazole] | – | – | – | 0/3 | 6.9 | 23.4 | 10.9 | inhibition in vivo at 25 mg/kg [1]: 54.7%; inhibition in vivo at 25 mg/kg [2]: 82.5%; Analgesic effect (Randall-Selitto) [3]: 5/5*
3-methoxy-1-(4-methoxy-6-methylpyrimidin-2-yl)-5-methylpyrazole [Mepirizole, reference compound] | – | – | – | – | – | – | – | Analgesic Randall-Selitto (ED₅₀) ([3]; ED₅₀, Wistar rats): 63.9 mg/kg; Anti-inflammatory Carrageenan (ID₅₀) [5]: 106 mg/kg
CCCCc1c(-c2ccccc2)nn2cc[nH]c12 [Example 12] | – | – | – | – | – | – | – | IC50 (5-lipoxygenase): 3.93 µM
